Measurements from the supplement of paper PMC6045584.
± gives the standard deviation of the averaged measurements.

Key:
AFIMOXIFENE = compound: CC/C(=C(\c1ccc(O)cc1)c1ccc(OCCN(C)C)cc1)c1ccccc1 [AFIMOXIFENE]; experiment: surviving fraction relative to DMSO-only wells; higher = less growth inhibition; details: exposure time: 5 days
Procedure, shortened: (§1)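 Inhibitors were tested at 0.5, 1, 5, 10, 50, 100, 500 and 1000 nM, applied continuously for five days beginning 24 hours after log-phase tumour cells were seeded at 250–500 per well in 384-well plates. CellTiter-Glo luminescence served as the viability measure, expressed as surviving fraction against the median of DMSO-only wells. Each line, screened three times, was kept only with replicate Pearson r >0.7 and median Z' >0.3.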

MK-1775 = compound: C=CCn1c(=O)c2cnc(Nc3ccc(N4CCN(C)CC4)cc3)nc2n1-c1cccc(C(C)(C)O)n1 [MK-1775]; experiment: as above; details: exposure time: 5 days
Procedure, shortened: as §1

| Test System | surviving fraction (AFIMOXIFENE; 0.5 nM) | surviving fraction (AFIMOXIFENE; 1 nM) | surviving fraction (AFIMOXIFENE; 5 nM) | surviving fraction (AFIMOXIFENE; 10 nM) | surviving fraction (AFIMOXIFENE; 50 nM) | surviving fraction (AFIMOXIFENE; 100 nM) | surviving fraction (AFIMOXIFENE; 500 nM) | surviving fraction (AFIMOXIFENE; 1000 nM) | surviving fraction (MK-1775; 0.5 nM) | surviving fraction (MK-1775; 1 nM) | surviving fraction (MK-1775; 5 nM) | surviving fraction (MK-1775; 10 nM) | surviving fraction (MK-1775; 50 nM) | surviving fraction (MK-1775; 100 nM) | surviving fraction (MK-1775; 500 nM) | surviving fraction (MK-1775; 1000 nM) |
| --- | --- | --- | --- | --- | --- | --- | --- | --- | --- | --- | --- | --- | --- | --- | --- | --- |
| 22RV1 PROSTATE | 1.06 ± 0.088 | 1.04 ± 0.089 | 1.09 ± 0.054 | 1.09 ± 0.016 | 1.1 ± 0.048 | 1.06 ± 0.08 | 1.13 ± 0.056 | 1.04 ± 0.079 | 1.01 ± 0.03 | 1.01 ± 0.066 | 0.972 ± 0.051 | 1 ± 0.021 | 1.03 ± 0.033 | 0.877 ± 0.083 | 0.608 ± 0.028 | 0.263 ± 0.039 |
| 93VU HEADNECK | 1.25 ± 0.11 | 1.2 ± 0.11 | 1.34 ± 0.074 | 1.32 ± 0.075 | 1.27 ± 0.053 | 1.2 ± 0.1 | 1.24 ± 0.12 | 1.08 ± 0.068 | 1.05 ± 0.098 | 0.996 ± 0.034 | 1.13 ± 0.1 | 1.01 ± 0.033 | 0.649 ± 0.063 | 0.416 ± 0.038 | 0.22 ± 0.021 | 0.165 ± 0.029 |
| 143B BONE | – | 1.09 ± 0.041 | 1.15 ± 0.11 | 1.1 ± 0.036 | 1.12 ± 0.035 | 1.1 ± 0.033 | 1.14 ± 0.12 | 1.12 ± 0.15 | 0.998 ± 0.0057 | 1.01 ± 0.033 | 1.02 ± 0.045 | 1.02 ± 0.0028 | 1.025 ± 0.0057 | 0.993 ± 0.013 | 0.111 ± 0.011 | 0.067 ± 0.0042 |
| A549 LUNG | 1.07 ± 0.021 | 1.065 ± 0.0068 | 1.06 ± 0.022 | 1.08 ± 0.013 | 1.05 ± 0.023 | 1.1 ± 0.03 | 1.09 ± 0.022 | 1.11 ± 0.032 | 1.02 ± 0.051 | 0.985 ± 0.059 | 0.995 ± 0.057 | 0.998 ± 0.032 | 1.05 ± 0.037 | 1.08 ± 0.047 | 0.816 ± 0.02 | 0.38 ± 0.011 |
| ASKA SYNOVIAL | 1.11 ± 0.056 | 1.18 ± 0.097 | 1.18 ± 0.096 | 1.23 ± 0.031 | 1.18 ± 0.029 | 1.17 ± 0.069 | 1.04 ± 0.1 | 1.14 ± 0.064 | 0.946 ± 0.032 | 1.02 ± 0.1 | 1.1 ± 0.03 | 1.02 ± 0.023 | 0.405 ± 0.0092 | 0.406 ± 0.012 | 0.295 ± 0.019 | 0.37 ± 0.015 |
| BT20 BREAST | 1.32 ± 0.11 | 1.27 ± 0.07 | 1.24 ± 0.065 | 1.3 ± 0.096 | 1.19 ± 0.086 | 1.28 ± 0.037 | 1.7 ± 0.076 | 1.9 ± 0.13 | 1.12 ± 0.23 | 1.05 ± 0.19 | 1.06 ± 0.17 | 1.04 ± 0.21 | 1.09 ± 0.3 | 0.972 ± 0.21 | 0.162 ± 0.02 | 0.0827 ± 0.021 |
| BT549 BREAST | 0.924 ± 0.072 | 1.01 ± 0.1 | 1.01 ± 0.12 | 0.926 ± 0.082 | 0.93 ± 0.046 | 1.04 ± 0.013 | 1.07 ± 0.14 | 0.865 ± 0.052 | 1.15 ± 0.1 | 1.11 ± 0.13 | 1.09 ± 0.089 | 1.04 ± 0.089 | 0.783 ± 0.038 | 0.427 ± 0.011 | 0.0453 ± 0.0057 | 0.0453 ± 0.0032 |
| C33A CERVIX | 1.06 ± 0.065 | 1.07 ± 0.062 | 1.06 ± 0.15 | 1.1 ± 0.047 | 1.14 ± 0.083 | 1.21 ± 0.029 | 1.22 ± 0.12 | 1.34 ± 0.069 | 0.908 ± 0.063 | 0.986 ± 0.15 | 1 ± 0.053 | 0.962 ± 0.11 | 0.895 ± 0.073 | 0.491 ± 0.025 | 0.043 ± 0.02 | 0.0347 ± 0.0064 |
| CADOES1 SOFT TISSUE | 1.04 ± 0.054 | 0.998 ± 0.092 | 0.842 ± 0.12 | 0.986 ± 0.066 | 1.07 ± 0.064 | 0.978 ± 0.067 | 1.14 ± 0.042 | 0.967 ± 0.087 | 0.978 ± 0.014 | 0.929 ± 0.11 | 0.95 ± 0.036 | 0.887 ± 0.049 | 0.92 ± 0.094 | 0.832 ± 0.065 | 0.444 ± 0.034 | 0.218 ± 0.017 |
| CAL51 BREAST | 0.988 ± 0.042 | 0.966 ± 0.054 | 1.05 ± 0.1 | 0.984 ± 0.029 | 1.04 ± 0.046 | 1.05 ± 0.028 | 1.08 ± 0.036 | 0.969 ± 0.028 | 0.966 ± 0.047 | 0.9993 ± 0.0062 | 1.01 ± 0.016 | 0.994 ± 0.044 | 0.853 ± 0.012 | 0.48 ± 0.031 | 0.0318 ± 0.0013 | 0.0317 ± 0.0026 |
| CAL72 BONE | 1.1 ± 0.045 | 1.08 ± 0.069 | 1.11 ± 0.037 | 1.12 ± 0.034 | 1.14 ± 0.082 | 1.13 ± 0.07 | 0.967 ± 0.17 | 0.832 ± 0.21 | 1.06 ± 0.019 | 1.08 ± 0.041 | 1.07 ± 0.047 | 1.05 ± 0.023 | 1.11 ± 0.041 | 0.959 ± 0.018 | 0.123 ± 0.0076 | 0.109 ± 0.0067 |
| CAL120 BREAST | 1 ± 0.031 | 0.972 ± 0.017 | 1.02 ± 0.074 | 1 ± 0.044 | 1.04 ± 0.041 | 0.994 ± 0.045 | 0.999 ± 0.031 | 0.948 ± 0.027 | 0.9598 ± 0.0037 | 0.944 ± 0.011 | 0.985 ± 0.026 | 0.9663 ± 0.0029 | 0.902 ± 0.016 | 0.783 ± 0.027 | 0.2 ± 0.015 | 0.12 ± 0.018 |
| CASKI CERVIX | 0.882 ± 0.064 | 0.93 ± 0.023 | 0.989 ± 0.046 | 0.977 ± 0.03 | 1.1 ± 0.071 | 1.05 ± 0.017 | 1.01 ± 0.043 | 0.9003 ± 0.0032 | 0.887 ± 0.032 | 0.916 ± 0.071 | 0.99 ± 0.044 | 0.919 ± 0.049 | 0.479 ± 0.022 | 0.187 ± 0.012 | 0.0533 ± 0.0051 | 0.0453 ± 0.0068 |
| CHLA90 AUTONOMIC GANGLIA | 0.969 ± 0.013 | 0.966 ± 0.061 | 0.985 ± 0.077 | 0.98 ± 0.039 | – | 1.16 ± 0.078 | 1.09 ± 0.088 | 1.05 ± 0.11 | 1.03 ± 0.051 | 1.06 ± 0.073 | 0.981 ± 0.023 | 0.963 ± 0.024 | 0.791 ± 0.011 | 0.681 ± 0.036 | 0.0927 ± 0.0067 | 0.076 ± 0.013 |
| CME SYNOVIAL | 1.26 ± 0.1 | 1.31 ± 0.15 | 1.42 ± 0.13 | 1.46 ± 0.13 | 1.41 ± 0.13 | 1.43 ± 0.1 | 1.28 ± 0.085 | 1.4 ± 0.053 | 1.36 ± 0.27 | 1.31 ± 0.096 | 1.5 ± 0.11 | 1.24 ± 0.13 | 1.45 ± 0.094 | 1.4 ± 0.11 | 1.3 ± 0.18 | 0.385 ± 0.025 |
| COLO320DM LARGE INTESTINE | 1.14 ± 0.071 | 1.05 ± 0.08 | 1.05 ± 0.011 | 1.11 ± 0.045 | 1.17 ± 0.079 | 1.18 ± 0.056 | 1.16 ± 0.05 | 1.13 ± 0.018 | 1.09 ± 0.063 | 1.1 ± 0.12 | 1.08 ± 0.12 | 1.12 ± 0.033 | 0.834 ± 0.054 | 0.592 ± 0.16 | 0.139 ± 0.011 | 0.131 ± 0.014 |
| DU4475 BREAST | 0.958 ± 0.1 | 0.963 ± 0.1 | 0.964 ± 0.053 | 0.903 ± 0.057 | 0.825 ± 0.017 | 0.717 ± 0.031 | 0.872 ± 0.17 | 0.651 ± 0.11 | 1.1 ± 0.26 | 1.15 ± 0.088 | 1.01 ± 0.068 | 0.889 ± 0.059 | 0.686 ± 0.28 | 0.554 ± 0.23 | 0.102 ± 0.034 | 0.037 ± 0.0056 |
| H23 LUNG | 1.06 ± 0.045 | 1.05 ± 0.026 | 1.07 ± 0.05 | 1.03 ± 0.016 | 1.07 ± 0.023 | 1.09 ± 0.094 | 1.07 ± 0.08 | 1.06 ± 0.11 | 1.04 ± 0.018 | 1.02 ± 0.041 | 1.04 ± 0.06 | 1.03 ± 0.1 | 0.86 ± 0.054 | 0.632 ± 0.045 | 0.285 ± 0.023 | 0.209 ± 0.034 |
| HCC78 LUNG | 0.893 ± 0.16 | 0.908 ± 0.17 | 0.902 ± 0.39 | 1.05 ± 0.19 | – | 1.13 ± 0.077 | 1.29 ± 0.2 | 1.08 ± 0.094 | 0.883 ± 0.12 | 0.875 ± 0.14 | 1.07 ± 0.32 | 1.02 ± 0.13 | 0.827 ± 0.15 | 0.839 ± 0.08 | 0.105 ± 0.022 | 0.0803 ± 0.02 |
| HCC202 BREAST | 1.15 ± 0.4 | 1.2 ± 0.061 | 1.53 ± 0.67 | 1.19 ± 0.14 | 1.03 ± 0.083 | 1.17 ± 0.17 | 0.881 ± 0.29 | 1.13 ± 0.51 | 1.137 ± 0.0059 | 1.13 ± 0.2 | 1.01 ± 0.21 | 0.991 ± 0.061 | 0.908 ± 0.17 | 0.712 ± 0.22 | 0.347 ± 0.08 | 0.361 ± 0.075 |
| HCC1395 BREAST | 1.26 ± 0.13 | 1.15 ± 0.057 | 1.33 ± 0.13 | 1.25 ± 0.048 | 1.19 ± 0.13 | 1.12 ± 0.12 | 1.04 ± 0.11 | 1.09 ± 0.16 | 0.885 ± 0.071 | 1.169 ± 0.0022 | 1.03 ± 0.2 | 1.14 ± 0.12 | 0.935 ± 0.1 | 0.931 ± 0.12 | 0.741 ± 0.11 | 0.618 ± 0.083 |
